For 8 compounds, GI50 and TGI results are on record in PubChem BioAssay (NCI).

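Grown in 96-well plates, cells were treated for 48 hours with each compound at five concentrations. Insufficient inhibition: endpoint recorded as highest concentration tested. GI50 is the concentration that inhibits growth by half. TGI is the concentration that stops growth completely.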

Among the test systems are HS 578T breast; ACHN renal; SNB-75 CNS; LOX IMVI melanoma; SK-MEL-2 melanoma; NCI-H23 lung; HT29 colon; CCRF-CEM leukemia; A549 NSCLC; A498 renal.
Common to all, as to test: DTP human tumour cell line panel, 48 h

Broadly, the GI50 is the concentration at which growth is held to half of that of the control. The term TGI denotes the concentration giving total growth inhibition. High values mean lower sensitivity of the cells, low ones greater sensitivity of the cells.

Regarding `Cc1cc(C)c(O)c(CNCCCNCc2cc(C)cc(C)c2O)c1`, the GI50 with HS 578T breast was 2.05 µM; with ACHN renal, 3.55 µM; with SNB-75 CNS it was 1.39 µM; in the assay on LOX IMVI melanoma, 1.52 µM; in the assay on SK-MEL-2 melanoma it was 2.15 µM; in the assay with NCI-H23 lung, 7.46 µM. In addition, the GI50 is 3.02 µM in the assay on HT29 colon, 3.82 µM in the assay with CCRF-CEM leukemia, 11 µM in the assay with A549 NSCLC and 1.71 µM in the assay on A498 renal. For the same compound, the TGI is 5.03 µM in the assay on HS 578T breast; 10.8 µM in the assay on ACHN renal; 2.78 µM in the assay on SNB-75 CNS; 2.88 µM with LOX IMVI melanoma; 4.5 µM in the assay on SK-MEL-2 melanoma; 21.2 µM with NCI-H23 lung. The concentration for total growth inhibition (TGI) in the assay with HT29 colon turned out to be 10.7 µM; in the assay on CCRF-CEM leukemia, 15.3 µM; in the assay with A549 NSCLC it was 24.6 µM; in the assay with A498 renal, 9.24 µM.
For the compound `COc1ccc(C[C@H]2NC[C@H](O)[C@H]2OC(C)=O)cc1`, the TGI in the assay with HS 578T breast was determined as 0.0604 µM; in the assay with ACHN renal it was 0.122 µM; in the assay on SNB-75 CNS, 0.0668 µM; with LOX IMVI melanoma, 0.0409 µM; with SK-MEL-2 melanoma, 0.398 µM; with NCI-H23 lung, 0.52 µM. Further, the TGI with HT29 colon came out at 0.179 µM; with CCRF-CEM leukemia, 0.863 µM; with A549 NSCLC it was 3.48 µM; in the assay with A498 renal, 0.32 µM. The 50% growth inhibitory concentration (GI50) in the assay on A549 NSCLC is 0.0413 µM.
Consider `CN[C@H]1CC[C@]23C[C@]24CC[C@]2(C)[C@@H]([C@H](C)N(C)C)CC[C@@]2(C)[C@@H]4CC[C@H]3C1(C)C`, for which the TGI in the assay on HS 578T breast stood at 48 µM; in the assay with ACHN renal it was 31 µM; with SNB-75 CNS, 33.2 µM; with LOX IMVI melanoma it was 18.9 µM; with SK-MEL-2 melanoma, 40 µM; in the assay on NCI-H23 lung, 35.6 µM. The TGI in the assay with HT29 colon worked out at 14.2 µM; with CCRF-CEM leukemia, 98.8 µM; in the assay on A549 NSCLC, 39.2 µM; with A498 renal, 35.4 µM.
`C[C@@H]1OC(=O)NN=C1c1ccc(-c2ccc(F)cc2)c(C(F)(F)F)c1`: the TGI in the assay with HS 578T breast came to 3.37 µM; with ACHN renal, 23.2 µM; in the assay on SNB-75 CNS, 20.4 µM; in the assay on LOX IMVI melanoma, 18.8 µM; in the assay with SK-MEL-2 melanoma it was 13.1 µM; with NCI-H23 lung it was 21.2 µM. In addition, the TGI with HT29 colon was 25.4 µM; in the assay with CCRF-CEM leukemia, over 100 µM; in the assay with A549 NSCLC, 22.8 µM; in the assay on A498 renal, 29.5 µM. Further, the GI50 with ACHN renal was 11.2 µM; in the assay with SNB-75 CNS it was 5 µM; in the assay with LOX IMVI melanoma, 4.78 µM; with SK-MEL-2 melanoma it was 0.141 µM; with NCI-H23 lung it was 7.17 µM; in the assay on HT29 colon it was 10.3 µM. Also, the GI50 with CCRF-CEM leukemia is 8.25 µM; with A549 NSCLC, 8.21 µM; with A498 renal it was 15.5 µM.
Consider `O=C1CCC(N2C(=O)c3cccc(NCCOCCOCCNC(=O)c4cc5c(o4)C(=O)c4ccccc4C5=O)c3C2=O)C(=O)N1` (stereo not drawn), for which the GI50 is 2.4 µM in the assay with HS 578T breast; 2.3 µM in the assay on ACHN renal; 2.47 µM with SNB-75 CNS; 1.1 µM with LOX IMVI melanoma; 2.36 µM in the assay with SK-MEL-2 melanoma; 0.352 µM in the assay with NCI-H23 lung. For the same compound, the GI50 in the assay on HT29 colon was 3.35 µM; with CCRF-CEM leukemia it was 3.45 µM; in the assay on A549 NSCLC, 2.18 µM; in the assay with A498 renal it was 1.66 µM. Also, the TGI in the assay with HS 578T breast is 7.76 µM; with ACHN renal it was 6.62 µM; in the assay with SNB-75 CNS, 4.16 µM; in the assay with LOX IMVI melanoma, 2.5 µM; in the assay on SK-MEL-2 melanoma, 6.46 µM; in the assay on NCI-H23 lung it was 1.71 µM. The TGI in the assay on HT29 colon was over 100 µM; in the assay with CCRF-CEM leukemia, 28.9 µM; in the assay with A549 NSCLC, 4.91 µM; in the assay on A498 renal, 3.12 µM.
With `COc1ccc2c(c1)c(-c1ccc(-c3cn(C)c4ccc(OC)cc34)o1)cn2C`, the GI50 in the assay with HS 578T breast was 4.2 µM; with ACHN renal, 3.74 µM; with SNB-75 CNS, 13.6 µM; in the assay with LOX IMVI melanoma, 10.4 µM; in the assay on SK-MEL-2 melanoma, 2.13 µM; in the assay on NCI-H23 lung, 17.3 µM. Also, the GI50 with HT29 colon is 22 µM; in the assay on CCRF-CEM leukemia it was 6.46 µM; with A549 NSCLC it was 18.4 µM; with A498 renal it was over 100 µM. The TGI was 20.1 µM in the assay on HS 578T breast; 18.6 µM with ACHN renal; 53.7 µM in the assay on SNB-75 CNS; over 100 µM in the assay with LOX IMVI melanoma; 5.28 µM in the assay on SK-MEL-2 melanoma; over 100 µM with NCI-H23 lung. Also, the TGI in the assay on HT29 colon was over 100 µM; in the assay on CCRF-CEM leukemia, 78.4 µM; with A549 NSCLC, over 100 µM; in the assay on A498 renal it was over 100 µM.
Regarding `S=C1SCN(C2CCCCCCCCCCC2)CN1C1CCCCCCCCCCC1`, the TGI in the assay with HS 578T breast, in the assay with ACHN renal, in the assay with SNB-75 CNS, with LOX IMVI melanoma, in the assay on SK-MEL-2 melanoma and in the assay on NCI-H23 lung was over 100 µM each time. Moreover, the TGI in the assay with HT29 colon, in the assay on CCRF-CEM leukemia, in the assay with A549 NSCLC and in the assay with A498 renal was over 100 µM each time.
`O=C(Nc1ccc(N2CCNCC2)cn1)c1[nH]ncc1Nc1ncnc2sccc12`: the GI50 was 2.86 µM in the assay on HS 578T breast; 2.17 µM in the assay on ACHN renal; 4.89 µM in the assay on SNB-75 CNS; 7.72 µM in the assay on SK-MEL-2 melanoma; 2.02 µM in the assay on NCI-H23 lung; 1.91 µM in the assay on HT29 colon. Moreover, the GI50 in the assay with CCRF-CEM leukemia was 1.25 µM; in the assay with A549 NSCLC, 1.66 µM; with A498 renal it was 13.4 µM. The TGI with HS 578T breast turned out to be 14.2 µM; with ACHN renal it was 5.33 µM; with SNB-75 CNS, 21.2 µM; in the assay on SK-MEL-2 melanoma, 25.9 µM; in the assay on NCI-H23 lung it was 4.75 µM; with HT29 colon it was 3.97 µM. The figures for the TGI in the assay on CCRF-CEM leukemia, in the assay with A549 NSCLC and in the assay on A498 renal were 6.97 µM, 3.45 µM and 31.5 µM, respectively.
